From US5541159A, “Calcitonin derivatives” (Sandoz Ltd., priority 1988, dated 1996)

Tested on: ovulation
Assay: inhibition of ovulation in female rats (M. Marko and E. Fluckiger)
Format: in vivo
Details: s.c.
Experimental: The LHRH antagonists of the invention, in particular the compounds of formula XI inhibit luteinizing hormone secretion, e.g. as indicated by an inhibition of ovulation in animals. This test is effected according to M. Marko and E. Fluckiger, Experientia 30, […] (1974).
Adult female rats of the Ivanovas Wistar strain (Sprague Dawley, Iva: SDIV, 200-250 g) are kept under standard conditions: 14 h light (from 0.400 to 18.00 hours); 24° C.; 55-60% rel. humidity; food and water ad libitum. Animals with regular 4-day cycles are injected on proestrus day at 13.00 h with the compound to be tested, subcutaneously or by the oral route. The next day at 9:00 a.m. the rats are sacrified and ova counted on both Fallopian tubes with the aid of a dissecting microscope. Only when no eggs are found is ovulation considered to be inhibited. The mean number of eggs per ovulating rat in each treatment groups is also determined.

Question: Which “ED50 inhibition of ovulation” value does the source give for “[N-Ac-DPhe(Cl)^1,2, DTrp^3,DAla^10 ]-LHRH” here?
Answer: The value was 80 µg/kg.
